The results in this text go back to ChEMBL document CHEMBL1157442, “Discovery of new binding elements in DPP-4 inhibition and their applications in novel DPP-4 inhibitor design” (Bioorg Med Chem Lett, 2008).

One data set addresses Dipeptidyl peptidase 4 (Homo sapiens, UniProt P27487). Nature of the data set: Inhibition of DPP4.
The next data set deals with Dipeptidyl peptidase 8 (Homo sapiens, UniProt Q6V1X1). Briefly: Inhibition of DPP8.
Data set [1] can be described thus: Clearance in rat plasma at 1 mg/kg, iv and 2 mg/kg, po. The class given is ADME, organism-based.
Data set [2] in a line: Half life in rat plasma 1 mg/kg, iv and 2 mg/kg, po. It counts as ADME, organism-based.
Data set [3] is described as follows: Cmax in rat 1 mg/kg, iv and 2 mg/kg, po. To be noted: in vivo. It counts as ADME, organism-based.
The nature of data set [4]: Oral bioavailability in rat at 2 mg/kg. The conditions noted are these: in vivo. The class given is ADME, organism-based.

Chain of Dipeptidyl peptidase 8 (Q6V1X1 whole entry): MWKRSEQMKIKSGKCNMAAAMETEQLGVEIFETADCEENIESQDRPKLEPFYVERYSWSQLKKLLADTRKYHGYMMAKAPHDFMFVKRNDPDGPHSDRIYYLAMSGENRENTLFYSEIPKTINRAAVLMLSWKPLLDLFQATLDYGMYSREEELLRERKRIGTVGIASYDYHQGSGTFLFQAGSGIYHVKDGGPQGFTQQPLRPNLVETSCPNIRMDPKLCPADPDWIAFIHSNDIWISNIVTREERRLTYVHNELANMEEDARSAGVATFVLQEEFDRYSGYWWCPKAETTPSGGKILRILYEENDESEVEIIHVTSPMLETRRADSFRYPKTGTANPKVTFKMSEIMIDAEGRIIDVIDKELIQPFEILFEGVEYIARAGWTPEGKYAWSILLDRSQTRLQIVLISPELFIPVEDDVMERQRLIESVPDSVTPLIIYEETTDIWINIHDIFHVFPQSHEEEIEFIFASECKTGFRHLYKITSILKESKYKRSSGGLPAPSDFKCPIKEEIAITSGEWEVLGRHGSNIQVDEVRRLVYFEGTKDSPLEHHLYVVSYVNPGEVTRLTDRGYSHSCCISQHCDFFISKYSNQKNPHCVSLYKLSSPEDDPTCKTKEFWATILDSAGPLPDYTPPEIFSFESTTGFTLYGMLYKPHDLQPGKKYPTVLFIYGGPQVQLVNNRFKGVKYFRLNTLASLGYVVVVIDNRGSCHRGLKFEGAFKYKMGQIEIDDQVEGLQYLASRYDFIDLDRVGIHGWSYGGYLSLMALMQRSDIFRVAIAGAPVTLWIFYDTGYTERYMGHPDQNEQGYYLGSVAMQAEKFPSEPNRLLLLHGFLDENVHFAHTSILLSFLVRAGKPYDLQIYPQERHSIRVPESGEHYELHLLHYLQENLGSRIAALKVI
Chain of Dipeptidyl peptidase 4 (P27487 whole entry): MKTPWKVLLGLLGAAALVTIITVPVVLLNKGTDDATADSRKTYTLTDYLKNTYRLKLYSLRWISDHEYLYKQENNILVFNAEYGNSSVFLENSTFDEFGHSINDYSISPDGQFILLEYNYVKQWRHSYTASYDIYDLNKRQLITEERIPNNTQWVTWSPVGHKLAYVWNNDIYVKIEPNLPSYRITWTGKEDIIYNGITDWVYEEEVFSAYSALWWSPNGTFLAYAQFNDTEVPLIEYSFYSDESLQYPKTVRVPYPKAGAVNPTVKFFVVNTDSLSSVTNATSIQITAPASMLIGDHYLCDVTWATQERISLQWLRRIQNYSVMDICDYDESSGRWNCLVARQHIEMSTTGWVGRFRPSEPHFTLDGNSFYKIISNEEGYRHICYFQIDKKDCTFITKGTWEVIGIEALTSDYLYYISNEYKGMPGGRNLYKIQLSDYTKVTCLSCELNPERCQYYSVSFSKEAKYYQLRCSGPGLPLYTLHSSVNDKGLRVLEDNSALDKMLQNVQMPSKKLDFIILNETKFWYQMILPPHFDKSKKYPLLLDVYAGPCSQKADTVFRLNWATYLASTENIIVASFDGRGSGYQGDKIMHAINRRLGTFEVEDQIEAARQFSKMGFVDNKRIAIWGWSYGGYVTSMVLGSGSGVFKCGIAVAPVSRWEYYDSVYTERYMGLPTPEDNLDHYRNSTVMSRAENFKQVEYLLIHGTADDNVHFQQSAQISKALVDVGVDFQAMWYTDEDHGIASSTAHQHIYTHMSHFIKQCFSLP

A word on the IC50: it is the concentration that inhibits the measured activity by half. In turn, `N[C@@H](CC(=O)N1CCC[C@H]1CO)C(=O)N1CC[C@H](F)C1` yielded an IC50 against Dipeptidyl peptidase 4 of 9.2 µM. This lies in the single-digit micromolar range.
With `C[C@@H](c1nc(-c2ccc(OC(F)(F)F)cc2)no1)[C@H](N)Cc1cc(F)ccc1F`, the concentration for half-maximal inhibition (IC50) at Dipeptidyl peptidase 4 was 4.4 µM; at Dipeptidyl peptidase 8, above 100 µM.
The molecule `C[C@H](c1nc(-c2ccc(OC(F)(F)F)cc2)no1)[C@H](N)C(=O)N1CCCC1` gave a concentration for half-maximal inhibition (IC50) against Dipeptidyl peptidase 8 above 100 µM.
Regarding `N[C@H](Cc1cc(F)ccc1F)c1ccc(-c2ccncc2Cl)cc1`, the concentration for half-maximal inhibition (IC50) was 0.107 µM against Dipeptidyl peptidase 4 and above 100 µM against Dipeptidyl peptidase 8.
Taken in the same sequence, the figures for `C[C@H](c1nc(-c2ccc(Cl)cc2Cl)no1)[C@H](N)C(=O)N1CC[C@H](F)C1` were 0.615 µM and above 100 µM.
Molecule `N[C@H](Cc1cc(F)ccc1F)c1ccc(Br)cc1` gave a half-maximal inhibitory concentration (IC50) against Dipeptidyl peptidase 8 above 100 µM.
The same measure, in the same setting: under `C[C@H](c1nc(-c2ccc(S(C)(=O)=O)cc2Cl)no1)[C@H](N)C(=O)N1CC[C@H](F)C1` stands above 100 µM.
Consider `C[C@@H]1C(=O)NCCCN1C(=O)C[C@H](N)Cc1ccccc1F`, for which, on Dipeptidyl peptidase 4, the half-inhibitory concentration (IC50) turned out to be 0.04 µM.
Turning to `Cc1noc(C(=O)C[C@H](N)Cc2cc(F)ccc2F)n1`, the IC50 on Dipeptidyl peptidase 8 is above 100 µM.
With `C[C@@H](c1ccc(-c2ccncc2Cl)cc1)[C@H](N)C(=O)N1CC[C@H](F)C1`, the figures for the IC50 on Dipeptidyl peptidase 4 and at Dipeptidyl peptidase 8 were 0.071 µM and above 100 µM, respectively.
On to `C[C@@H](c1nc(-c2ccc(S(C)(=O)=O)cc2Cl)no1)[C@H](N)Cc1cc(F)c(F)cc1F`, for which the IC50 on Dipeptidyl peptidase 4 is 0.046 µM; against Dipeptidyl peptidase 8, above 100 µM.
Taken in the same sequence, the figures for `C[C@@H](c1nc(-c2ccc(Cl)cc2Cl)no1)[C@H](N)Cc1cc(F)c(F)cc1F` were 0.6 µM and above 100 µM.
Usually half-life stands for how long it takes for the measured level to halve. Low values mean fast loss, high ones slow loss. The term Cmax denotes the peak of the concentration-time curve. `NC(=O)c1cccc(-c2ccc([C@H](N)Cc3cc(F)ccc3F)cc2)c1`: the IC50 against Dipeptidyl peptidase 8 is above 100 µM. The clearance in data set [1] amounted to 0.78 L/h/kg. The molecule also had a half-life in data set [2] of 3.8 h. In data set [3], the peak concentration (Cmax) is 2.1 µM. Further, in data set [4], the bioavailability was determined as 130%.
